The subject of experiment [1] is rHBV-CreN. Nature of the experiment: Western blot of Co-InCre reconstitution and core protein in rHBV-CreN infected CreC/CIR cells. In kind it is cell-based, hepatitis B virus. Conditions: rHBV-CreN infected CreC/CIR cells treated with MyrB. The procedure:
(§1) HepG2-NTCP-CreC/CIR cells were seeded on collagen-coated plates with a density of 1.34×10^3 cells/mm^2 and cultured in DMEM containing 2.5% dimethylsulfoxide (DMSO) for 2 days prior to infection. The inoculum was prepared by diluting the virus in DMEM containing 2.5% DMSO and 4% PEG8000. For blocking rHBV entry, Myrcludex B (200 nM) was added to the rHBV inoculum (Li and Urban, 2016, Cancer research 42, 3858-3863). The cells were inoculated for 24 hours and maintained in DMEM containing 2.5% DMSO for indicated time according to the experimental set-ups.
Cellular proteins were isolated using RIPA buffer (Pierce, 89900) containing a protease inhibitor cocktail (Roche, 11836153001). The proteins were separated by 12% Sodium dodecyl sulphate-polyacrylamide gel electrophoresis (SDS-PAGE) and subsequently transferred onto a polyvinylidene difluoride (PVDF) membrane (Bio-Rad, 162-0177). The blotted membrane was blocked with 5% milk-TBST (20 mM Tris-HCl, pH7.4, 140 mM NaCl, 1% Tween 20). The antibodies were diluted in 1.5% milk-TBST. For core protein detection, an in-house hybridoma supernatant (8C9) was used in a 1:1 dilution. For Co-InCre detection, an anti-Cre antibody (Merck, 69050) was used in a 1:1000 dilution. […]-Actin (1:5000; Sigma, A5441) was used as a reference protein. […] The chemiluminescent signal was detected by Intas ECL ChemoCam.
Background: In western blotting, separated proteins are transferred to a membrane and probed.

For experiment [2], the system named is rHBV-CreN. In words: Detection of Cre-lox recombination by PCR in rHBV-CreN infected CreC/CIR cells. As to conditions: rHBV-CreN infected CreC/CIR cells treated with MyrB. Type of experiment: cell-based, hepatitis B virus. The procedure: as §1
Genomic DNA of the cells was isolated using NucleoSpin® Tissue Kit (Macherey-Nagel, 740952.250). The Cre-lox recombination was analyzed by PCR using primers flanking the neomycin sequence (forward, 5′-[…]-3′ (SEQ ID NO: 29) and reverse, 5′-GGTACCGTCGACTGCAGAT-3′ (SEQ ID NO: 30)). The PCR was performed with 250 ng of genomic DNA and Phusion® Hot Start Flex DNA Polymerase (New England Biolabs, M0535S). The reaction required the following conditions: 1 cycle of denaturation at 98° C. for 30 seconds, 35 cycles of amplification (98° C. for 10 seconds, 61° C. for 30 seconds, 72° C. for 45 seconds), and 1 cycle of extension at 72° C. for 1 minute. The PCR products were examined by agarose gel electrophoresis.

Experiment [3] has as its system rHBV-CreN. In words: rHBV-CreN infection of CreC/CIR reporter cells with entry inhibitor, DsRed-positive cells by flow cytometry. Type of experiment: cell-based, hepatitis B virus. As for the experimental part: HepG2-NTCP-CreC/CIR cells were seeded on collagen-coated plates with a density of 1.34×10^3 cells/mm^2 and cultured in DMEM containing 2.5% dimethylsulfoxide (DMSO) for 2 days prior to infection. The inoculum was prepared by diluting the virus in DMEM containing 2.5% DMSO and 4% PEG8000. […] The cells were inoculated for 24 hours and maintained in DMEM containing 2.5% DMSO for indicated time according to the experimental set-ups.
(§2) Cells were collected from 24-well plates using trypsin-versene at a 1:1 ratio (Gibco, 15400-054 and 15040-033). Cell pellets were resuspended in 1 ml of FACS buffer (PBS containing 1% BSA and 0.5 mM EDTA) and incubated with LIVE/DEAD™ Fixable Near-Infrared dead cell stain kit (Invitrogen, L10119). The samples were subjected to CytoFLEX S (Beckman Coulter) and the obtained data was analyzed by FlowJo software (v10, FlowJo LLC.).
For orientation: A flow cytometer gives signals particle by particle.

Experiment [4] has as its system rHBV-CreN. In words: HBeAg ELISA of supernatant of rHBV-CreN infected CreC/CIR cells. In kind it is cell-based, hepatitis B virus. Conditions: rHBV-CreN MOI=250 with MyrB, day 7 post-infection. The procedure:
as §1
The amount of HBeAg in cell-derived supernatants was measured using a commercial qualitative immunoassay—Enzygnost HBe monoclonal (Siemens, OQDM11) and automated BEP III system (Siemens Healthcare).

Experiment [5] concerns rHBV-CreN infected HepG2-NTCP-CreC/CIR cells. In words: Negative selection of rHBV-CreN infected cells with Neomycin, flow cytometry. Type of experiment: cell-based, human. As to conditions: Neomycin 2 mg/ml for 30 days. The procedure: as §2

With Myrcludex-B [MyrB], in the experiment with rHBV-CreN [1], the “Co-InCre detection (Western blot)” value was “not detected” and the “core protein detection (Western blot)” value is “not detected”. Besides, the “0.2-kb band (ΔNeo) PCR product” value in the experiment with rHBV-CreN [2] is listed as “absent”. For the same substance, the “number of DsRed-positive cells” value with rHBV-CreN [3] (CreC/CIR cells, rHBV-CreN MOI=250, MyrB added to the inoculum, day 7 post-infection, FACS) was “less than 1%”. The “percentage of DsRed-positive cells” value in the experiment on rHBV-CreN [3] (HepG2-NTCP-CreC/CIR cells, rHBV-CreN MOI=300 virions/cell, Myrcludex B 200 nM, 10 days post infection, flow cytometry) is recorded as “less than 1%”. Further, in the experiment on rHBV-CreN [4], the HBeAg level entry is on record as “comparable to that of the mock sample”.

Regarding Neomycin, the “reduction of the number of DsRed-positive cells compared to untreated group” value in experiment [5] is 3.6 fold.
